The subject of this test is ventral mesencephalon cells of E12 rat embryos. The test can be described thus: Tissue culture expansion of mesencephalic precursors with bFGF. The conditions noted are these: from 800×10^3 cells; 10-20 ng bFGF/ml medium daily; N=12. Type of test: cell-based. As for the experimental part: Tissue was obtained from the ventral mesencephalon of E12 rat embryos (Sprague Dawley, plug day=day 0,) as described by Studer et al. in Current Protocols in Neuroscience (eds McKay, R. D. & Gerfen, C. R.) John Wiley & Sons Inc., New York, (1997).
Tissue pieces were spun in a centrifuge at 209 g for 5 minutes and mechanically triturated to a quasi single cell suspension in HBSS and counted. 5 ml of cell suspension at a concentration of 150-200×10^3 cells/ml was plated on a 10 cm culture dish containing DMEM/F12/N2 medium (Bottenstein, J. E. & Sato, G. H. Growth of a rat neuroblastoma cell line in serum-free supplemented medium. Proc.Natl.Acad.Sci.USA 76, 514-517 (1979) (modified according to Johe, K. K., Hazel, T. G., Müller, T., Dugich-Djordjevic, M. M. & McKay, R. D. G. Single factors direct the differentiation of stem cells from the fetal and adult central nervous system. Genes and Development 10, 3129-3140 (1996)) that had been previously coated with polyornithine (15 ug/ml) and fibronectin (1 ug/ml).
bFGF was added to the culture medium on a daily basis to a final concentration of 10-20 ng bFGF/ml medium. The medium was changed every other day.
Additionally, after treatment with bFGF all surviving cells were immunoreactive for the nestin intermediate filament a marker for immature neuroepithelial precursors. […]

As for “bFGF: basic fibroblast growth factor, added to proliferating medium to expand precursor cells”, the “cell number after 1 week of treatment with bFGF” value was 7,417×10^3+/−1,066×10^3 cells.

The values are drawn from patent US6787356B1, “Cell expansion system for use in neural transplantation” (The United States of America as represented by the …, priority 1998, dated 2004).
